Each compound was assayed against GST-tagged recombinant human TYRO3 kinase domain (Homo sapiens (Human), UniProt Q06418). Conditions: read-out: TYRO3 enzyme IC50.
Chain of GST-tagged recombinant human TYRO3 kinase domain (Q06418 518-790): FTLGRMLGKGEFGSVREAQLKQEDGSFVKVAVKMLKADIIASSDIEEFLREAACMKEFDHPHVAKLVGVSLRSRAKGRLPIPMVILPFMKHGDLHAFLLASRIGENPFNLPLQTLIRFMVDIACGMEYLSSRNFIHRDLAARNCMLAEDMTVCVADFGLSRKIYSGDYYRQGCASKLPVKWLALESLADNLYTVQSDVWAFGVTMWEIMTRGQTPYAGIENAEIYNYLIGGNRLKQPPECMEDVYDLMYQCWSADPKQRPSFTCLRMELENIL
With COC[C@@H]1CCC[C@@H]1Nc1n[nH]c2nccc(Oc3ccc(NC(=O)c4ccnn(-c5ccc(F)cc5)c4=O)cc3F)c12 (relative stereo) [Example 28, N-(3-fluoro-4-((3-((cis-2-(methoxymethyl)cyclopentyl)amino)-1H-pyrazolo[3,4-b]pyridin-4-yl)oxy)phenyl)-2-(4-fluorophenyl)-3-oxo-2,3-dihydropyridazine-4-carboxamide] the IC50 was 375 nM.
For O=C(Nc1ccc(Oc2ccnc3[nH]nc(NC4CC(F)(F)C4)c23)c(F)c1)c1ccnn(-c2ccc(F)cc2)c1=O [Example 12, N-(4-((3-((3,3-difluorocyclobutyl)amino)-1H-pyrazolo[3,4-b]pyridin-4-yl)oxy)-3-fluorophenyl)-2-(4-fluorophenyl)-3-oxo-2,3-dihydropyridazine-4-carboxamide], the IC50 was 295 nM.
COCC(C)(C)Nc1n[nH]c2nccc(Oc3ccc(NC(=O)c4ccnn(-c5ccc(F)cc5)c4=O)cc3F)c12 [Example 18, N-(3-fluoro-4-((3-((1-methoxy-2-methylpropan-2-yl)amino)-1H-pyrazolo[3,4-b]pyridin-4-yl)oxy)phenyl)-2-(4-fluorophenyl)-3-oxo-2,3-dihydropyridazine-4-carboxamide] was tested, and the IC50 was 131 nM.
For COCC1(Nc2n[nH]c3nccc(Oc4ccc(NC(=O)c5ccnn(-c6ccc(F)cc6)c5=O)cc4F)c23)CCCC1 [Example 20, N-(3-fluoro-4-((3-((1-(methoxymethyl)cyclopentyl)amino)-1H-pyrazolo[3,4-b]pyridin-4-yl)oxy)phenyl)-2-(4-fluorophenyl)-3-oxo-2,3-dihydropyridazine-4-carboxamide], the IC50 was 536 nM.
With COCC1(Nc2n[nH]c3nccc(Oc4ccc(NC(=O)c5ccnn(-c6ccc(F)cc6)c5=O)cc4F)c23)CCC1 [Example 21, N-(3-fluoro-4-((3-((1-(methoxymethyl)cyclobutyl)amino)-1H-pyrazolo[3,4-b]pyridin-4-yl)oxy)phenyl)-2-(4-fluorophenyl)-3-oxo-2,3-dihydropyridazine-4-carboxamide] the IC50 was 188 nM.
Compound COCCC(C)(C)Nc1n[nH]c2nccc(Oc3ccc(NC(=O)c4ccnn(-c5ccc(F)cc5)c4=O)cc3F)c12 [Example 22, N-(3-fluoro-4-((3-((4-methoxy-2-methylbutan-2-yl)amino)-1H-pyrazolo[3,4-b]pyridin-4-yl)oxy)phenyl)-2-(4-fluorophenyl)-3-oxo-2,3-dihydropyridazine-4-carboxamide] has an IC50 of 318 nM.
O=C(Nc1ccc(Oc2ccnc3[nH]nc(NCC4CCS(=O)(=O)C4)c23)c(F)c1)c1ccnn(-c2ccc(F)cc2)c1=O (stereo not drawn) [Example 24, N-(4-((3-(((1,1-dioxidotetrahydrothiophen-3-yl)methyl)amino)-1H-pyrazolo[3,4-b]pyridin-4-yl)oxy)-3-fluorophenyl)-2-(4-fluorophenyl)-3-oxo-2,3-dihydropyridazine-4-carboxamide] showed an IC50 of 120 nM.
With COCC(C)(C)Nc1n[nH]c2nccc(Oc3ccc(NC(=O)c4ccnn(-c5ccc(F)cc5)c4=O)nc3)c12 [Example 71, 2-(4-fluorophenyl)-N-(5-((3-((1-methoxy-2-methylpropan-2-yl)amino)-1H-pyrazolo[3,4-b]pyridin-4-yl)oxy)pyridin-2-yl)-3-oxo-2,3-dihydropyridazine-4-carboxamide] the IC50 was 192 nM.
Cc1c(C(=O)Nc2ccc(Oc3ccnc4[nH]nc(N[C@H](C)CO)c34)c(F)c2)c(=O)n(-c2ccccc2)n1C [Example 86, (R)-N-(3-fluoro-4-((3-((1-hydroxypropan-2-yl)amino)-1H-pyrazolo[3,4-b]pyridin-4-yl)oxy)phenyl)-1,5-dimethyl-3-oxo-2-phenyl-2,3-dihydro-1H-pyrazole-4-carboxamide] showed an IC50 of 104 nM.
With C[C@H](CO)Nc1n[nH]c2nccc(Oc3ccc(NC(=O)c4cn(C)n(-c5ccccc5)c4=O)cc3F)c12 [Example 87, (R)-N-(3-fluoro-4-((3-((1-hydroxypropan-2-yl)amino)-1H-pyrazolo[3,4-b]pyridin-4-yl)oxy)phenyl)-1-methyl-3-oxo-2-phenyl-2,3-dihydro-1H-pyrazole-4-carboxamide] the IC50 was 432 nM.
C[C@H](CO)Nc1n[nH]c2nccc(Oc3ccc(NC(=O)c4cn(C)n(-c5ccc(F)cc5)c4=O)cc3F)c12 [Example 88, (R)-N-(3-fluoro-4-((3-((1-hydroxypropan-2-yl)amino)-1H-pyrazolo[3,4-b]pyridin-4-yl)oxy)phenyl)-2-(4-fluorophenyl)-1-methyl-3-oxo-2,3-dihydro-1H-pyrazole-4-carboxamide] was tested, and the IC50 was 364 nM.
With CC(C)n1cc(C(=O)Nc2ccc(Oc3ccnc4[nH]nc(N[C@H](C)CO)c34)c(F)c2)c(=O)n(-c2cnn(C)c2)c1=O [Example 93, (R)-N-(3-fluoro-4-((3-((1-hydroxypropan-2-yl)amino)-1H-pyrazoo[3,4-b]pyridin-4-yl)oxy)phenyl)-1-isopropyl-3-(1-methyl-1H-pyrazol-4-yl)-2,4-dioxo-1,2,3,4-tetrahydropyrimidine-5-carboxamide] the IC50 was 767 nM.
With CC(C)n1cc(C(=O)Nc2ccc(Oc3ccnc4[nH]nc(N[C@H](C)CO)c34)c(F)c2)c(=O)n(C(C)C)c1=O [Example 95, (R)-N-(3-fluoro-4-((3-((1-hydroxypropan-2-yl)amino)-1H-pyrazolo[3,4-b]pyridin-4-yl)oxy)phenyl)-1,3-diisopropyl-2,4-dioxo-1,2,3,4-tetrahydropyrimidine-5-carboxamide] the IC50 was 875 nM.
In the case of CC(C)n1cc(C(=O)Nc2ccc(Oc3ccnc4[nH]nc(N[C@H](C)CO)c34)c(F)c2)c(=O)n(C2CCOCC2)c1=O [Example 99, (R)-N-(3-fluoro-4-((3-((1-hydroxypropan-2-yl)amino)-1H-pyrazolo[3,4-b]pyridin-4-yl)oxy)phenyl)-1-isopropyl-2,4-dioxo-3-(tetrahydro-2H-pyran-4-yl)-1,2,3,4-tetrahydropyrimidine-5-carboxamide], the IC50 is reported as 546 nM.
Work on C[C@H](CO)Nc1n[nH]c2nccc(Oc3ccc(NC(=O)C4CCCN(c5ccc(F)cc5)C4=O)cc3F)c12 (stereo partly drawn) [Example 101, N-(3-fluoro-4-((3-(((R)-1-hydroxypropan-2-yl)amino)-1H-pyrazolo[3,4-b]pyridin-4-yl)oxy)phenyl)-1-(4-fluorophenyl)-2-oxopiperidine-3-carboxamide] yielded an IC50 of 198 nM.
C[C@H](CO)Nc1n[nH]c2nccc(Oc3ccc(NC(=O)c4cc5c(n(-c6ccc(F)cn6)c4=O)CCCC5=O)cc3F)c12 [Example 111, (R)-N-(3-fluoro-4-((3-((1-hydroxypropan-2-yl)amino)-1H-pyrazolo[3,4-b]pyridin-4-yl)oxy)phenyl)-1-(5-fluoropyridin-2-yl)-2,5-dioxo-1,2,5,6,7,8-hexahydroquinoine-3-carboxamide] showed an IC50 of 137 nM.
Compound CCn1nc(C(=O)Nc2ccc(Oc3ccnc4[nH]nc(N[C@@H](C)CO)c34)c(F)c2)c(=O)n(-c2ccc(F)c(F)c2)c1=O [Example 132, (S)-4-(3,4-difluorophenyl)-2-ethyl-N-(3-fluoro-4-((3-((1-hydroxypropan-2-yl)amino)-1H-pyrazolo[3,4-b]pyridin-4-yl)oxy)phenyl)-3,5-dioxo-2,3,4,5-tetrahydro-1,2,4-triazine-6-carboxamide] has an IC50 of 348 nM.
CCn1nc(C(=O)Nc2ccc(Oc3ccnc4[nH]nc(N[C@H](C)CO)c34)c(F)c2)c(=O)n(-c2ccc(F)c(F)c2)c1=O [Example 133, (R)-4-(3,4-difluorophenyl)-2-ethyl-N-(3-fluoro-4-((3-((1-hydroxypropan-2-yl)amino)-1H-pyrazolo[3,4-b]pyridin-4-yl)oxy)phenyl)-3,5-dioxo-2,3,4-5-tetrahydro-1,2,4-triazine-6-carboxamide] showed an IC50 of 130 nM.
CCn1cc(C(=O)Nc2ccc(Oc3ccnc4[nH]nc(NC(C)(C)COC)c34)c(F)c2)c(=O)n(-c2ccc(F)cc2)c1=O [Example 157, 1-ethyl-N-(3-fluoro-4-((3-((1-methoxy-2-methylpropan-2-yl)amino)-1H-pyrazolo[3,4-b]pyridin-4-yl)oxy)phenyl)-3-(4-fluorophenyl)-2,4-dioxo-1,2,3,4-tetrahydropyrimidine-5-carboxamide] gave an IC50 of 118 nM.
COCC(C)(C)Nc1n[nH]c2nccc(Oc3ccc(NC(=O)c4cn(C)c(=O)n(-c5ccc(F)cc5)c4=O)cc3F)c12 [Example 158, N-(3-fluoro-4-((3-((1-methoxy-2-methylpropan-2-yl)amino)-1H-pyrazolo[3,4-b]pyridin-4-yl)oxy)phenyl)-3-(4-fluorophenyl)-1-methyl-2,4-dioxo-1,2,3,4-tetrahydropyrimidine-5-carboxamide] showed an IC50 of 104 nM.
Compound COCC(C)(C)Nc1n[nH]c2nccc(Oc3ccc(NC(=O)c4cn(CCO)c(=O)n(-c5ccc(F)cc5)c4=O)cc3F)c12 [Example 159, N-(3-fluoro-4-((3-((1-methoxy-2-methylpropan-2-yl)amino)-1H-pyrazolo[3,4-b]pyridin-4-yl)oxy)phenyl)-3-(4-fluorophenyl)-1-(2-hydroxyethyl)-2,4-dioxo-1,2,3,4-tetrahydropyrimidine-5-carboxamide] has an IC50 of 420 nM.
CC(CC(F)F)Nc1n[nH]c2nccc(Oc3ccc(NC(=O)c4cn(C)cc(-c5ccc(F)cc5)c4=O)nc3)c12 (stereo not drawn) [Example 167, N-(5-((3-((4,4-difluorobutan-2-yl)amino)-1H-pyrazolo[3,4-b]pyridin-4-yl)oxy)pyridin-2-yl)-5-(4-fluorophenyl)-1-methyl-4-oxo-1,4-dihydropyridine-3-carboxamide] gave an IC50 of 224 nM.
In the case of Cc1cc(C(=O)Nc2ccc(Oc3ccnc4[nH]nc(NC(C)CC(F)F)c34)cn2)c(=O)n(-c2ccc(F)cc2)c1 (stereo not drawn) [Example 168, N-(5-((3-((4,4-difluorobutan-2-yl)amino)-1H-pyrazolo[3,4-b]pyridin-4-yl)oxy)pyridin-2-yl)-1-(4-fluorophenyl)-5-methyl-2-oxo-1,2-dihydropyridine-3-carboxamide], the IC50 is reported as 248 nM.
CCOC[C@H](C)Nc1n[nH]c2nccc(Oc3ccc(NC(=O)c4cc(C)cn(-c5ccc(F)cc5)c4=O)cc3F)c12 [Example 172, (S)-N-(4-((3-((1-ethoxypropan-2-yl)amino)-1H-pyrazolo[3,4-b]pyridin-4-yl)oxy)-3-fluorophenyl)-1-(4-fluorophenyl)-5-methyl-2-oxo-1,2-dihydropyridine-3-carboxamide] showed an IC50 of 133 nM.

— patent US11104676B2 (priority 2018, dated 2021)
